Reference: patent US12691186B2, “B7-H3 miniproteins, conjugates, and uses thereof” (priority 2023, dated 2026)

Assays:
[1] = system: >6,500 different human proteins; assay: Off-target binding, cell microarray platform (Retrogenix Assay) in HEK293 cells; settings: biotin-labeled molecules
Protocol: To evaluate potential off-target binding, eight biotin-labeled molecules were tested in a cell microarray platform (Charles River Lab, Retrogenix Assay) having >6,500 different human proteins spanning diverse functions and subcellular locations.
Initially, two pools of molecules were tested. Pool #1 consisted of C298, C300, C302, C304, and pool #2 consisted of C306, C308, C310, and C312 at 2 μg/mL for each molecule. To perform this assay, HEK293 cells were plated on a dish and localized spots of cells were transiently over-expressed with a cDNA encoding for one of the >6,500 targets. Included in this library were two isoforms of CD276 (B7-H3) and B7-H3 related proteins (B7-1, B7-2, B7-H1/PD-L1, and B7-H2). The molecule pools were incubated on the fixed, over-expressing cell microarrays (n=2 per protein), and binding was visualized using Alexa Fluor 647 streptavidin fluorescence. All transfection efficiencies exceeded minimum thresholds for the microarray expression targets. Preliminary interactions identified from pooled results were re-spotted in duplicates, and each of the eight compounds were tested individually (n=2) at 2 μg/mL and/or in dose response against these targets as described above to validate the interactions.
All positive control interactions were strong and passed quality control. Specific interactions observed (median SNR≥1) confirmed on-target B7-H3 binding in two different isoforms for each of the eight test molecules. These interactions with the primary target occurred after fixation and in live cells (absence of fixation). No significant additional interactions were confirmed for any test molecules outside of B7-H3, indicating high specificity for the primary target (data not shown).

[2] = In vitro metabolic stability, kidney brush border membrane preparations (KBBM); assay type: in vitro ADME; set-up: unit not given here; settings: mouse kidney brush border membrane preparation, 37° C.
Protocol: (§1) Exemplary miniprotein conjugates were spiked into biological matrices at initial concentration between 1-2 μM. Tested matrices were varied by species (mouse, rat, human) and type (plasma, serum, and kidney brush border membrane preparations tested each from 0.625-100 μg/mL protein content). Tested conditions were incubated with TAs at 37° C. for 4 hours. At collection points of 0, 15, 30, 60, 120, 240 minutes, 50 μL of each condition were quenched by organic solvent (methanol or acetonitrile) or the addition of 4% phosphoric acid solution. Fractions of each quenched timepoint were subsequently assayed for parent TA concentration by high resolution LC-MS. Percent-parent-remaining-time plots were constructed from the ratio of each given time collection to the time-zero parent TA. Percent-parent-remaining in mouse serum and plasma for exemplary miniproteins are recorded in Table 8.

[3] = In vitro metabolic stability, plasma; assay type: in vitro ADME; set-up: unit not given here; settings: 37° C.
Protocol: as §1

Molecule	background binding to untransfected HEK293 cells [1]	In vitro Stability (mouse) - KBBM [2]	In vitro Stability (mouse) - Plasma [3]
CC[C@H](C)[C@@H]1NC(=O)[C@H](Cc2ccccc2)NC(=O)[C@H](C)NC(=O)[C@H](CCCCNC)NC(=O)[C@H]([C@@H](C)CC)NC(=O)[C@H](CCC(N)=O)NC(=O)[C@H](C)NC(=O)[C@H](Cc2ccc(O)cc2)NC(=O)[C@H]([C@@H](C)O)NC(=O)[C@H](CC(C)C)NC(=O)[C@@H]2CSSC[C@@H](C(=O)N[C@@H](CO)C(N)=O)NC(=O)[C@H](CC(C)C)NC(=O)[C@H](CCC(=O)O)NC(=O)[C@H](CCCCNC)NC(=O)[C@H](C)NC(=O)[C@H](CCC(=O)O)NC(=O)[C@H](CO)NC(=O)[C@H](CC(C)C)NC(=O)[C@H]([C@@H](C)CC)NC(=O)[C@H](CC(N)=O)NC(=O)[C@H](C)NC(=O)[C@H](CO)NC(=O)[C@H](CCC(N)=O)NC(=O)[C@H](CSSC[C@H](NC(=O)CCOCCOCCOCCOCCNC(=O)CCCC[C@@H]3SC[C@@H]4NC(=O)N[C@@H]43)C(=O)N[C@@H](C)C(=O)N[C@@H](CCCNC(=N)N)C(=O)N[C@@H](CCC(=O)O)C(=O)N[C@@H](CCCCN)C(=O)N[C@@H]([C@@H](C)CC)C(=O)N[C@@H](C)C(=O)N[C@@H](C)C(=O)N[C@@H](CC(C)C)C(=O)N[C@@H](CO)C(=O)N[C@@H](CCC(=O)O)C(=O)N[C@@H]([C@@H](C)CC)C(=O)N[C@@H]([C@@H](C)CC)C(=O)N[C@@H](Cc3c[nH]c4ccccc34)C(=O)N[C@@H](CC(C)C)C(=O)N3CCC[C@H]3C(=O)N2)NC(=O)[C@@H]2CCCN2C(=O)[C@H](CC(=O)O)NC(=O)[C@H](CC(=O)O)NC(=O)[C@H](CC(N)=O)NC(=O)[C@H](CC(C)C)NC(=O)[C@H](C)NC(=O)[C@H](C)NC1=O [Compound C302]	low-background binding	–	–
CC[C@H](C)[C@@H]1NC(=O)[C@H](Cc2ccccc2)NC(=O)[C@H](C)NC(=O)[C@H](CCCCNC)NC(=O)[C@H]([C@@H](C)CC)NC(=O)[C@H](CCC(N)=O)NC(=O)[C@H](C)NC(=O)[C@H](Cc2ccc(O)cc2)NC(=O)[C@H]([C@@H](C)O)NC(=O)[C@H](CC(C)C)NC(=O)[C@@H]2CSSC[C@@H](C(=O)N[C@@H](CO)C(N)=O)NC(=O)[C@H](CC(C)C)NC(=O)[C@H](CCC(=O)O)NC(=O)[C@H](CCCCNC)NC(=O)[C@H](C)NC(=O)[C@H](CCC(=O)O)NC(=O)[C@H](CO)NC(=O)[C@H](CC(C)C)NC(=O)[C@H]([C@@H](C)CC)NC(=O)[C@H](CCC(=O)O)NC(=O)[C@H](CO)NC(=O)[C@H](CO)NC(=O)[C@H](CCC(N)=O)NC(=O)[C@H](CSSC[C@H](NC(=O)CCOCCOCCOCCOCCNC(=O)CCCC[C@@H]3SC[C@@H]4NC(=O)N[C@@H]43)C(=O)N[C@@H](C)C(=O)N[C@@H](CCCC[N+](C)(C)C)C(=O)N[C@@H](CCC(=O)O)C(=O)N[C@@H](CCCCN)C(=O)N[C@@H]([C@@H](C)CC)C(=O)N[C@@H](C)C(=O)N[C@@H](C)C(=O)N[C@@H](CC(C)C)C(=O)N[C@@H](CO)C(=O)N[C@@H](CCC(=O)O)C(=O)N[C@@H]([C@@H](C)CC)C(=O)N[C@@H]([C@@H](C)CC)C(=O)N[C@@H](Cc3c[nH]c4ccccc34)C(=O)N[C@@H](CC(C)C)C(=O)N3CCC[C@H]3C(=O)N2)NC(=O)[C@@H]2CCCN2C(=O)[C@H](CC(=O)O)NC(=O)[C@H](CC(=O)O)NC(=O)[C@H](CC(N)=O)NC(=O)[C@H](CC(C)C)NC(=O)[C@H](C)NC(=O)[C@H](C)NC1=O [Compound C304]	low-background binding	–	–
CC[C@H](C)[C@@H]1NC(=O)[C@H](CCCCN)NC(=O)[C@H](CCC(=O)O)NC(=O)[C@H](CCCC[N+](C)(C)C)NC(=O)[C@H](C)NC(=O)[C@@H](NC(=O)CCOCCOCCOCCOCCNC(=O)CCCC[C@@H]2SC[C@@H]3NC(=O)N[C@@H]32)CSSC[C@@H]2NC(=O)[C@@H]3CCCN3C(=O)[C@H](CC(=O)O)NC(=O)[C@H](CC(=O)O)NC(=O)[C@H](CC(N)=O)NC(=O)[C@H](CC(C)C)NC(=O)[C@H](C)NC(=O)[C@H](CCCCNC)NC(=O)[C@H]([C@@H](C)CC)NC(=O)[C@H](Cc3ccccc3)NC(=O)[C@H](C)NC(=O)[C@H](CCCCNC)NC(=O)[C@H]([C@@H](C)CC)NC(=O)[C@H](CCC(N)=O)NC(=O)[C@H](C)NC(=O)[C@H](Cc3ccc(O)cc3)NC(=O)[C@H]([C@@H](C)O)NC(=O)[C@H](CC(C)C)NC(=O)[C@H](CSSC[C@@H](C(=O)N[C@@H](CO)C(N)=O)NC(=O)[C@H](CC(C)C)NC(=O)[C@H](CCC(=O)O)NC(=O)[C@H](CCCCNC)NC(=O)[C@H](C)NC(=O)[C@H](CCC(=O)O)NC(=O)[C@H](CO)NC(=O)[C@H](CC(C)C)NC(=O)[C@H]([C@@H](C)CC)NC(=O)[C@H](CCC(=O)O)NC(=O)[C@H](CO)NC(=O)[C@H](CO)NC(=O)[C@H](CCC(N)=O)NC2=O)NC(=O)[C@@H]2CCCN2C(=O)[C@H](CC(C)C)NC(=O)[C@H](Cc2c[nH]c3ccccc23)NC(=O)[C@H]([C@@H](C)CC)NC(=O)[C@H]([C@@H](C)CC)NC(=O)[C@H](CCC(=O)O)NC(=O)[C@H](CO)NC(=O)[C@H](CC(C)C)NC(=O)[C@H](C)NC(=O)[C@H](C)NC1=O [Compound C306]	low-background binding	>12	>12
CC[C@H](C)[C@@H]1NC(=O)[C@H](Cc2ccccc2)NC(=O)[C@H](C)NC(=O)[C@H](CCCCNC)NC(=O)[C@H]([C@@H](C)CC)NC(=O)[C@H](CCC(N)=O)NC(=O)[C@H](C)NC(=O)[C@H](Cc2ccc(O)cc2)NC(=O)[C@H](CC(N)=O)NC(=O)[C@H](CC(C)C)NC(=O)[C@@H]2CSSC[C@@H](C(=O)N[C@@H](CO)C(N)=O)NC(=O)[C@H](CC(C)C)NC(=O)[C@H](CCC(=O)O)NC(=O)[C@H](CCCCNC)NC(=O)[C@H](C)NC(=O)[C@H](CCC(=O)O)NC(=O)[C@H](CO)NC(=O)[C@H](CC(C)C)NC(=O)[C@H]([C@@H](C)CC)NC(=O)[C@H](CCC(=O)O)NC(=O)[C@H](CO)NC(=O)[C@H](CO)NC(=O)[C@H](CCC(N)=O)NC(=O)[C@H](CSSC[C@H](NC(=O)CCOCCOCCOCCOCCNC(=O)CCCC[C@@H]3SC[C@@H]4NC(=O)N[C@@H]43)C(=O)N[C@@H](C)C(=O)N[C@@H](CCCC[N+](C)(C)C)C(=O)N[C@@H](CCC(=O)O)C(=O)N[C@@H](CCCCN)C(=O)N[C@@H]([C@@H](C)CC)C(=O)N[C@@H](C)C(=O)N[C@@H](C)C(=O)N[C@@H](CC(C)C)C(=O)N[C@@H](CO)C(=O)N[C@@H](CCC(=O)O)C(=O)N[C@@H]([C@@H](C)CC)C(=O)N[C@@H]([C@@H](C)CC)C(=O)N[C@@H](Cc3c[nH]c4ccccc34)C(=O)N[C@@H](CC(C)C)C(=O)N3CCC[C@H]3C(=O)N2)NC(=O)[C@@H]2CCCN2C(=O)[C@H](CC(=O)O)NC(=O)[C@H](CC(=O)O)NC(=O)[C@H](CC(N)=O)NC(=O)[C@H](CC(C)C)NC(=O)[C@H](C)NC(=O)[C@H](C)NC1=O [Compound C310]	low-background binding	–	–
CC[C@H](C)[C@@H]1NC(=O)[C@H](Cc2ccccc2)NC(=O)[C@H](C)NC(=O)[C@H](CCCCNC)NC(=O)[C@H]([C@@H](C)CC)NC(=O)[C@H](CCC(N)=O)NC(=O)[C@H](C)NC(=O)[C@H](Cc2ccc(O)cc2)NC(=O)[C@H]([C@@H](C)O)NC(=O)[C@H](CC(C)C)NC(=O)[C@@H]2CSSC[C@@H](C(=O)N[C@@H](CO)C(N)=O)NC(=O)[C@H](CC(C)C)NC(=O)[C@H](CCC(=O)O)NC(=O)[C@H](CCCCNC)NC(=O)[C@H](C)NC(=O)[C@H](CCC(=O)O)NC(=O)[C@H](CO)NC(=O)[C@H](CC(C)C)NC(=O)[C@H]([C@@H](C)CC)NC(=O)[C@H](CCC(=O)O)NC(=O)[C@H](CO)NC(=O)[C@H](CO)NC(=O)[C@H](CC(N)=O)NC(=O)[C@H](CSSC[C@H](NC(=O)CCOCCOCCOCCOCCNC(=O)CCCC[C@@H]3SC[C@@H]4NC(=O)N[C@@H]43)C(=O)N[C@@H](C)C(=O)N[C@@H](CCCC[N+](C)(C)C)C(=O)N[C@@H](CCC(=O)O)C(=O)N[C@@H](CCCCN)C(=O)N[C@@H]([C@@H](C)CC)C(=O)N[C@@H](C)C(=O)N[C@@H](C)C(=O)N[C@@H](CC(C)C)C(=O)N[C@@H](CO)C(=O)N[C@@H](CCC(=O)O)C(=O)N[C@@H]([C@@H](C)CC)C(=O)N[C@@H]([C@@H](C)CC)C(=O)N[C@@H](Cc3c[nH]c4ccccc34)C(=O)N[C@@H](CC(C)C)C(=O)N3CCC[C@H]3C(=O)N2)NC(=O)[C@@H]2CCCN2C(=O)[C@H](CC(=O)O)NC(=O)[C@H](CC(=O)O)NC(=O)[C@H](CC(N)=O)NC(=O)[C@H](CC(C)C)NC(=O)[C@H](C)NC(=O)[C@H](C)NC1=O [Compound C312]	low-background binding	–	–
C298 (CAXEKIAALSEIIWLPCLTYAQIXAFIAALNDDPCQSSEILSEAKELCS; Biotin-PEG4 N-term, methylated lysines, C-amide; SITE 3 trimethyllysine; SITE 24 dimethyllysine) [Compound C298]	low-background binding	–	–
